Data published in ChEMBL document CHEMBL1158735, “Manoyl oxide diterpenoids from Grindelia scorzonerifolia” (2005).
In brackets after ≈: the same amount, converted by molar mass.

Legend:
Type in all cases: functional
[1] = test system: Spodoptera frugiperda; test: Insecticidal activity against third instar larvae of Spodoptera frugiperda assessed as malformation and mortality at 100 ppm administered through larval diet
[2] = test system: Spodoptera frugiperda; test: Effect on feeding preference of third instar larvae of Spodoptera frugiperda assessed as food consumption at 100 ppm administered through larval diet by feeding election test relative to control
[3] = test system: Staphylococcus aureus; test: Antibacterial activity against Staphylococcus aureus ATCC 6538P after 24 hrs by broth microdilution method
[4] = test system: Staphylococcus aureus; test: Antibacterial activity against methicillin-resistant Staphylococcus aureus F7 after 24 hrs by broth microdilution method

Compound: C=C[C@@]1(C)CC[C@@H]2[C@@]3(C)CCC[C@@](C)(CO[C@@H]4OC[C@H](O)[C@H](O)[C@H]4O)[C@@H]3CC[C@@]2(C)O1
- Activity [1]: 80%
- Activity [2]: 1
- MIC [3]: 2000 µg/mL (≈ 4.56 mM)
- MIC [4]: 1250 µg/mL (≈ 2.85 mM)
